Common to all, as to assay type: in vivo
The test system of assay [1] is Anopheles stephensi (Indian malaria mosquito). In words: Activity against Anopheles stephensi, dry deposit in tissue culture plates (Example B11). Conditions: 200 ppm in ethanol, adult females, after 48 h and/or 24 h. The protocol:
Example B11: Activity Against Anopheles stephensi (Indian Malaria Mosquito)
Test solutions, at an application rate of 200 ppm in ethanol, were applied to 12 well tissue culture plates. Once the deposits were dry, five, two to five day old adult female Anopheles stephensi were added to each well, and sustained with a 10% sucrose solution in a cotton wool plug. Assessment of knockdown was made one hour after introduction, and mortality was assessed at 24 and 48 hours after introduction. The following compounds gave at least 80% control of Anopheles stephensi after 48 h and/or 24 h: P1.14.

The test system of assay [2] is Euschistus heros (neotropical brown stink bug). The experiment in a line: Activity against Euschistus heros, soybean leaf spray (Example B7). Conditions: 120 h, N-2 nymphs on soybean leaf, 5 days after infestation. The protocol:
Example B7: Activity Against Euschistus heros (Neotropical Brown Stink Bug)
Soybean leaf on agar in 24-well microtiter plates were sprayed with aqueous test solutions prepared from 10′000 ppm DMSO stock solutions. After drying the leaf were infested with N-2 nymphs. The samples were assessed for mortality 5 days after infestation.

Assay [3] concerns Plutella xylostella (diamond back moth). In words: Activity against Plutella xylostella, artificial diet (Example B2). Conditions: 120 h, L2 larvae on artificial diet, 5 days after infestation, read-out: effect in at least one of the two categories (mortality or growth inhibition). The protocol: Example B2: Activity Against Plutella xylostella (Diamond Back Moth)
24-well microtiter plates with artificial diet were treated with aqueous test solutions prepared from 10′000 ppm DMSO stock solutions by pipetting. After drying, the plates were infested with L2 larvae (10 to 15 per well). The samples were assessed for mortality and growth inhibition in comparison to untreated samples 5 days after infestation. The following compounds gave an effect of at least 80% in at least one of the two categories (mortality or growth inhibition) at an application rate of 200 ppm: P1.3, P1.6, P1.7, P1.8, P1.9, P1.13, P1.14, P1.15, P1.16, P1.17 and P1.18.

The test system of assay [4] is Spodoptera littoralis (Egyptian cotton leaf worm). The experiment in a line: Activity against Spodoptera littoralis, cotton leaf disc spray (Example B1). Conditions: foliar, 72 h, L1 larvae on cotton leaf discs, 3 days after infestation, read-out: control in at least one of the three categories (mortality, anti-feedancy or growth inhibition). As for the experimental part:
Example B1: Activity Against Spodoptera littoralis (Egyptian Cotton Leaf Worm)
Cotton leaf discs were placed on agar in 24-well microtiter plates and sprayed with aqueous test solutions prepared from 10′000 ppm DMSO stock solutions. After drying the leaf discs were infested with five L1 larvae. The samples were assessed for mortality, anti-feedant effect, and growth inhibition in comparison to untreated samples 3 days after infestation. Control of Spodoptera littoralis by a test sample is when at least one of mortality, anti-feedant effect, and growth inhibition is higher than the untreated sample. The following compounds gave an effect of at least 80% control in at least one of the three categories (mortality, anti-feedancy or growth inhibition) at an application rate of 200 ppm: P1.2, P1.3, P1.6, P1.7, P1.8, P1.9, P1.10, P1.12, P1.13, P1.14, P1.15, P1.16, P1.17 and P1.18.

Assay [5] has as its system Diabrotica balteata (corn root worm). In words: Activity against Diabrotica balteata, maize sprouts (Example B3). Particulars: 96 h, L2 larvae on maize sprouts, 4 days after infestation, read-out: effect in at least one of the two categories (mortality or growth inhibition). As for the experimental part:
Example B3: Activity Against Diabrotica balteata (Corn Root Worm)
Maize sprouts, placed on an agar layer in 24-well microtiter plates were treated with aqueous test solutions prepared from 10′000 ppm DMSO stock solutions by spraying. After drying, the plates were infested with L2 larvae (6 to 10 per well). The samples were assessed for mortality and growth inhibition in comparison to untreated samples 4 days after infestation. The following compounds gave an effect of at least 80% in at least one of the two categories (mortality or growth inhibition) at an application rate of 200 ppm: P1.1, P1.2, P1.6, P1.7, P1.8, P1.9, P1.10, P1.13, P1.14, P1.15, P1.16, P1.17 and P1.18.

The test system of assay [6] is Myzus persicae (green peach aphid). The experiment in a line: Activity against Myzus persicae, sunflower leaf disc spray (Example B5). Particulars: foliar, 144 h, mixed-age aphid population on sunflower leaf discs, 6 days after infestation. The protocol:
Example B5: Activity Against Myzus persicae (Green Peach Aphid)
Sunflower leaf discs were placed on agar in a 24-well microtiter plate and sprayed with aqueous test solutions prepared from 10′000 ppm DMSO stock solutions. After drying, the leaf discs were infested with an aphid population of mixed ages. The samples were assessed for mortality 6 days after infestation.

For the molecule `CCS(=O)(=O)c1cc(C(F)(F)F)ccc1-n1cc(-c2ccc(C(F)(F)F)nc2)cn1` [Compound P1.14], in assay [1], the “control of Anopheles stephensi” value is listed as “at least 80%”. Further, the mortality at 200 ppm in assay [2] and in assay [6] was at least 80% throughout. For the same molecule, the percent effect (mortality or growth inhibition) at 200 ppm in assay [3] and in assay [5] was at least 80% in each case. Also, the percent control (mortality, anti-feedant effect or growth inhibition) at 200 ppm in assay [4] was at least 80%.

By mortality is commonly meant the percentage killed. Lower therefore signals a weak lethal effect.
